Laboratory results published in paper PMC9725750, “The clinical pharmacology of tafenoquine in the radical cure of Plasmodium vivax malaria: An individual patient data meta-analysis” (eLife, 2022).

Columns and labels:
[1] = set-up: method as in Shanks et al., 2001; conditions: ref Shanks et al., 2001, cited from earlier work
Plasmodium vivax = assay: Radical cure efficacy: any P. vivax recurrence within 4 months in patients, pooled DETECTIVE part 1/2 and GATHER (logistic regression and Emax models); assay type: in vivo, human; conditions: for mean recurrence proportion: empirical weight distribution
Excerpt: The primary endpoint for the main efficacy analyses was any P. vivax recurrence within 4 months. We chose the binary endpoint of any recurrence rather than the time to first recurrence because tafenoquine has both asexual stage antimalarial activity ([Fukuda et al., 2017]) and hypnozoiticidal activity. […] The choice of a particular cut-off for follow-up is thus a trade-off between sensitivity and specificity. Longer follow-up will increase the sensitivity of the endpoint (include more relapses) but decrease specificity (include more reinfections).
For all predictors we fitted Bayesian mixed effects logistic regression models (random intercepts for study and study site), with adjustment for day 0 parasitaemia (log transformed). Logistic regression allows inference of the odds-ratio for recurrence for the predictive variable of interest, assuming a linear relationship between the predictive variable and log-odds for recurrence.
For the mg/kg dose (the primary predictor of interest), the dose-response relationship was then assessed under a Bayesian Emax model, where the dose-dependent logit probability of recurrence is defined as: Emax(d,x)=α+βx+δd^k/d^k+γ^k,
The Emax model was also fitted with random intercepts for study and study site.
To determine the main predictors of recurrence, we fitted a multivariable penalised Bayesian logistic regression model. This included the following variables as predictors: the tafenoquine mg/kg dose; the plasma tafenoquine AUC[0,∞); the plasma tafenoquine Cmax; the day 7 MetHb concentration (%); the terminal elimination half-life t1/2; and the baseline parasite density. The model included random intercept terms for each study and study site. […] To avoid convergence issues resulting from the co-linearity of the predictors, the prior on all non-hierarchical coefficients was set to a Normal(0,0.5). This prior effectively shrinks the regression coefficients towards zero. It can be interpreted as follows: plausible odds-ratios for recurrence for one standard deviation change for each of the fixed effect predictors lie approximately between 0.38 and 2.7).
In a priori sensitivity analyses, all recurrences up until 6 months were included as both binary and time to event outcomes. The time to first recurrence was defined as a P. vivax episode between day 7 and day 180 with right censoring at the last recorded visit. We also re-ran the same models in patients who received a 300 mg single dose of tafenoquine only (i.e. the current recommended treatment).

[2] = Tolerability and safety: acute vomiting, severe haemolysis, haemoglobin change; assay type: in vivo, human; conditions: for Hb change to day 2/3 / Hb change to day 7±1: mean (sd)
Description: For tolerability, acute vomiting was defined as vomiting within 1 hr of tafenoquine dosing, and for safety, three definitions of severe haemolysis were assessed:
• Relative fall in haemoglobin by more than 25% to <7 g/dL • Absolute fall in haemoglobin greater than 5 g/dL • Any haemoglobin fall to <5 g/dL
Tolerability and safety events were categorised according to tafenoquine treatment and doses (no tafenoquine, <3.75 mg/kg tafenoquine, [3.75,6.25) mg/kg tafenoquine, [6.25,8.75) mg/kg tafenoquine, ≥8.75 mg/kg tafenoquine). The change in haemoglobin concentration from day 0 to the minimum on day 2 or 3, the expected day of nadir ([Commons et al., 2019]), was calculated to assess changes in haemoglobin associated with tafenoquine dose. Mixed effects models were used to explore the association between tafenoquine mg/kg dose, day 7 MetHb concentration, AUC[0,∞) , Cmax, and t1/2 adjusting for age, sex, day 0 parasite density and day 0 haemoglobin, with random effects for study and site.

[3] = cited from earlier work
CYP2D6 = CYP2D6 activity score (poor vs normal/extensive metabolisers): association with recurrence and half-life; assay type: in vivo, human
Excerpt: CYP2D6 genotyping data were available for patients enrolled in DETECTIVE part 2 and GATHER. We mapped CYP2D6 diplotypes to an activity score using the standard scoring system ([Caudle et al., 2020]) (note that under the updated scoring system the *10 allele has a score of 0.25 instead of 0.5). The activity score cannot be used as a linear predictor (e.g. a score of 1 cannot be interpreted as twice the metabolic activity of a score of 0.5). For this reason, to assess association with recurrence, we dichotomised the activity scores into poor metabolisers (≤0.5) versus normal/extensive metabolisers (>0.5) ([Caudle et al., 2020]).

[4] = all tafenoquine-treated patients

In the case of `COc1cc(C)c2c(Oc3cccc(C(F)(F)F)c3)c(OC)cc(NC(C)CCCN)c2n1` (stereo not shown) [tafenoquine], the haemolytic outcome ([1]; female heterozygous for G6PD deficiency (A- variant), total dose 1200 mg over 3 days) is listed as “severe haemolytic reaction”, the drop in haemoglobin ([1]; homozygous G6PD deficient female (A- variant), 1200 mg over 3 days, remained asymptomatic) is listed as roughly 3 g/dL and the “reduction of recurrence rates” value (Plasmodium vivax; 300 mg fixed dose vs no 8-aminoquinoline treatment) is listed as “around 70%”. The “reduction of recurrence rates” value (Plasmodium vivax; 450 mg fixed dose vs no 8-aminoquinoline treatment) was “around 85%”, the mean recurrence proportion (Plasmodium vivax; 450 mg fixed dose, 95% CI 3.2–11.5) was 6.2% and the “mean estimated recurrence proportion at 4 months” value (Plasmodium vivax; Emax model, 3 mg/kg) was 28.5%. The “mean estimated recurrence proportion at 4 months” value (Plasmodium vivax; Emax model, 4 mg/kg) was 20.8%, the “mean estimated recurrence proportion at 4 months” value (Plasmodium vivax; Emax model, 5 mg/kg) was 14.2% and the “proportion of the maximal obtainable hypnozoiticidal effect” value (Plasmodium vivax; Emax model, 300 mg dose in a 60 kg adult (5 mg/kg)) was 70%. The “reduction in the risk of P. vivax recurrence” value (Plasmodium vivax; Emax model, dose 7.5 mg/kg (i.e. 450 mg)) was 90%, the “proportion of the effect achieved with 15 mg/kg” value (Plasmodium vivax; Emax model, dose of approximately 7.5 mg/kg, 15 mg/kg taken as maximum tolerated single dose) was 90% and the “Recurrence at 4 months” value (Plasmodium vivax; TQ <3.75 mg/kg single dose + chloroquine, n=169) was 57 (33.7) total number (%). The “Recurrence at 4 months” value (Plasmodium vivax; TQ [3.75,6.25) mg/kg single dose + chloroquine, n=368) was 79 (21.5) total number (%), the “Recurrence at 4 months” value (Plasmodium vivax; TQ [6.25,8.75) mg/kg single dose + chloroquine, n=54) was 4 (7.4) total number (%) and the “Recurrence at 4 months” value (Plasmodium vivax; TQ ≥8.75 mg/kg single dose + chloroquine, n=43, 8.75 mg/kg) was “No recurrences”. For the same compound, the “Recurrence at 4 months” value (Plasmodium vivax; TQ ≥8.75 mg/kg single dose + chloroquine, n=43, listed as TQ, 8.75 mg/kg) was 0 (0) total number (%), the “number needed to treat to prevent one additional recurrence of malaria” value (Plasmodium vivax; adult dose increased from 300 mg to 450 mg, Emax model, 95% CI 7–21) was 11 patients and the “effect on recurrence rates at 4 months of increasing dosing recommendation from 300mg to 450mg” value (Plasmodium vivax; body weight distribution as in pre-registration trials) was “more than halve”. For the same compound, the “OR for recurrence per mg/kg increase” value (Plasmodium vivax; data from DETECTIVE part 1 only, 95% CI 0.52–0.72) was 0.62, the mean recurrence proportion (Plasmodium vivax; fixed 300 mg dose in an adult, 95% CI 9.6–21.7) was 15.3% and the “mean probability of recurrence at 4 months” value (Plasmodium vivax; logistic model estimate, following 5 mg/kg tafenoquine, 95% CI 0.10–0.23) was 0.15. The “odds-ratio (OR) for recurrence within 4 months per additional mg/kg of tafenoquine” value (Plasmodium vivax; logistic regression, all data n=1073, 95% CI 0.65–0.76) was 0.70, the “odds ratio for recurrence per absolute percentage point increase in the day 7 MetHb concentration” value (Plasmodium vivax; logit-Emax model adjusted for mg/kg dose, 95% CI 0.65 to 0.99) was 0.81 and the “OR for recurrence within 4 months per mg/kg tafenoquine” value (Plasmodium vivax; restricted to patients who received 300 mg dose, n=469, 95% CI 0.51–0.85) was 0.66. The “odds ratio for recurrence at 4 months for each day increase in t1/2” value (Plasmodium vivax; weight-adjusted t1/2, adjusted for mg/kg dose, 95% CI 1.06–1.25) was 1.15, the “additional mean haemoglobin reduction at day 2 or 3” value ([2]; 300 mg dose in a 60 kg adult) was “around 0.1 g/dL” and the “additional mean reduction in Hb at day 2 or 3, relative” value ([2]; 300 mg dose in a 60 kg adult) was less than 1%. The “patients who vomited within 1 hour of oral administration” value ([2]; 15/651 patients) was 2.3%, the “haemoglobin increase per one day increase in terminal elimination half-life” value ([2]; 95% CI 0.01 to 0.04) was 0.02 g/dL and the “OR for vomiting per mg/kg increase” value ([2]; 95% CI 0.88–1.32) was 1.08. The “change in haemoglobin concentration per one percent increase in day 7 MetHb” value ([2]; Hb on day 2 or 3, 95% CI –0.12 to –0.03) was “–0.08 g/dL”, the “Absolute Hb fall >5 g/dL” value ([2]; TQ 3.75-<6.25mg/kg, n=378) was 1 (0.3%) n (%) and the “Hb fall >25% to<7 g/dL” value ([2]; TQ 3.75-<6.25mg/kg, n=378) was 0 (0%) n (%). For the same compound, the “Hb fall to <5 g/dL” value ([2]; TQ 3.75-<6.25mg/kg, n=378) was 0 (0%) n (%), the “Absolute Hb fall >5 g/dL” value ([2]; TQ 6.25-<8.75mg/kg, n=56) was 0 (0%) n (%) and the “Hb fall >25% to<7 g/dL” value ([2]; TQ 6.25-<8.75mg/kg, n=56) was 0 (0%) n (%). The “Hb fall to <5 g/dL” value ([2]; TQ 6.25-<8.75mg/kg, n=56) was 0 (0%) n (%), the “Absolute Hb fall >5 g/dL” value ([2]; TQ <3.75mg/kg, n=171) was 0 (0%) n (%) and the “Hb fall >25% to<7 g/dL” value ([2]; TQ <3.75mg/kg, n=171) was 0 (0%) n (%). The “Hb fall to <5 g/dL” value ([2]; TQ <3.75mg/kg, n=171) was 0 (0%) n (%), the “Absolute Hb fall >5 g/dL” value ([2]; TQ > 8.75mg/kg, n=44) was 0 (0%) n (%) and the “Hb fall >25% to<7 g/dL” value ([2]; TQ > 8.75mg/kg, n=44) was 0 (0%) n (%). The “Hb fall to <5 g/dL” value ([2]; TQ > 8.75mg/kg, n=44) was 0 (0%) n (%), the “patients with a fall in Hb to less than 5 g/dL” value [2, 4] was “no patients” and the “patients with greater than 5 g/dL fall in Hb” value [2, 4] was “One patient”. The “patients with greater than 25% fall in Hb to <7 g/dL” value [2, 4] was “no patients”, the “mean haemoglobin reduction at day 2 or 3” value ([2]; dose increased to 450 mg) was 0.15 g/dL and the “Hb change to day 2/3” value ([2]; TQ 3.75-<6.25mg/kg, n=378) was “–0.7 (0.9)”. For the same compound, the “Hb change to day 7±1” value ([2]; TQ 3.75-<6.25mg/kg, n=378) was “–0.4 (1.1)”, the “Hb change to day 2/3” value ([2]; TQ 6.25-<8.75mg/kg, n=56) was “–0.8 (0.8)” and the “Hb change to day 7±1” value ([2]; TQ 6.25-<8.75mg/kg, n=56) was “–0.4 (1.0)”. The “Hb change to day 2/3” value ([2]; TQ <3.75mg/kg, n=171) was “–0.6 (0.9)”, the “Hb change to day 7±1” value ([2]; TQ <3.75mg/kg, n=171) was “–0.3 (0.9)” and the “Hb change to day 2/3” value ([2]; TQ > 8.75mg/kg, n=44) was “–0.6 (1.1)”. The “Hb change to day 7±1” value ([2]; TQ > 8.75mg/kg, n=44) was “–0.3 (1.3)”, the “haemoglobin change at day 2 or 3 per additional mg/kg of tafenoquine” value ([2]; mixed effects linear regression, 95% CI –0.04 to 0.00, P=0.02) was “–0.02 g/dL” and the route of elimination ([3]; ref Brueckner et al., 1998) was “eliminated via biliary excretion with enterohepatic recirculation, but is not eliminated in the urine”. For the same compound, the “persistence of plasma concentrations above a plausible minimum inhibitory concentration for the asexual activity” value ([3]; ref Dow and Smith, 2017) was “up to three months”, the terminal elimination half-life ([3]; ref Thakkar et al., 2018) was “about 15 days” and the “OR for recurrence at 4 months, poor versus normal/extensive metabolisers” value (CYP2D6; CYP2D6 activity score ≤0.5 vs >0.5, 95% CI 0.4 to 2.2) was 0.9. The “change in tafenoquine elimination half-life in poor versus normal/extensive metabolisers” value (CYP2D6; activity score ≤0.5, n=35 vs n=356, 95% CI –1.22 to 0.94) was “–0.15 days”.
